# Source: US11311590B2, “Anti-inflammatory botanical extract” (Innophos, Inc., priority 2018, dated 2022)
# Tested on: potato 5-Lipoxygenase enzyme
# Assay: Lipoxygenase Inhibitor Screening Assay Kit (Cayman) with potato 5-Lipoxygenase
# Type: biochemical
# Conditions: positive control at 100 μM
# Experimental: Research grade reagents were used for the rest of the assay preparations. Extracts were dissolved in dimethyl sulfoxide (‘DMSO’) to a final concentration of 50 mg/mL, and then diluted in appropriate buffer for each bioassay to working concentrations.
# This kit measures hydroperoxides produced in the lipoxygenation reaction.
# The extracts were dissolved in methanol to final working concentrations. 5-LOX enzyme, Chromagen, and Linoleic Acid solutions were prepared immediately before use. Nordihydroguaiaretic acid (‘NDGA’) was used as a positive control. 5-LOX enzyme was added to the test samples and controls and incubated for five minutes at room temperature to allow for enzyme/inhibitor interaction. Linoleic acid substrate was added to the plate to initiate the reaction, and the plate was then shaken at room temperature for 10 minutes. Chromagen was added to visualize the hydroperoxides formed during the reaction and the plate was shaken at room temperature for another five minutes. The absorbance was then read at 492 nm. Percent inhibition of the extract concentration was calculated in comparison to the uninhibited control wells.
smiles,measurement,value
"CC(Cc1ccc(O)c(O)c1)C(C)Cc1ccc(O)c(O)c1 (stereo not shown) [NDGA, Nordihydroguaiaretic acid]",5-LOX enzyme inhibition,100%
